This is an account of results in patent US20250161297A1, “COMPOSITIONS AND METHODS FOR INHIBITING FSP1” (THE REGENTS OF THE UNIVERSITY OF CALIFORNIA, priority 2022, published 2025).

The test deals with H460^C GPX4^KO cells. The test can be described thus: cell-based assay of FSP1 activity, cell death (SYTOX Green/mCherry lethal fraction). The following applies: H460^C GPX4^KO cells; read-out: EC50 for triggering cell death. The method, then: For cell-based screen, cells were seeded in triplicate at a density of 500-750 cells per 50 μL per well in black 384-well plates (NUNC) and (Corning) 24 hr before start of imaging. After 24 hr, an additional 50 μL of drug infused medium containing 30 nM SYTOX Green Dead Cell Stain was carefully placed into the wells on top of existing medium. The plates were immediately transferred to an IncuCyte S3 imaging system (Essen Bioscience) enclosed in an incubator set to 37° C. and 5% CO2. One image per well were captured in the phase, green, and red channels every 1.5 or 3 hr over a 24 hr period, and the ratio of SYTOX Green-positive objects (dead cells) to SYTOX Green-positive plus Sg-SAFE mCherry-positive objects (total cells) was quantified using S3 image analysis software (Essen Bioscience). For each treatment condition, the SYTOX-to-′SYTOX+mCherry′-object ratio was plotted against the 24 hr imaging interval, the Area Under the Curve (AUC) was calculated and the average AUC was plotted using Prism (GraphPad). To calculate the half-maximal effective concentration (EC50) values, the AUC curve was fit to a variable slope function comparing response to drug concentration.
In addition to the in vitro activity assay, an orthogonal cell-based assay of FSP1 activity was also developed. […]

With `COc1ccc(N2CCN(Cc3cn4c(-c5ccc(Br)cc5)nnc4s3)CC2)cc1` [FSEN1], the EC50 is 69.4 nM.

Usually EC50 stands for the midpoint of the concentration-response curve.
